# “And” between values parts separate entries of the source, which are not always exact repeats. Equal values may be shown once. “Also recorded” adds a separate entry of the source.
# Assays:
# [1] = system: VEGF-induced proliferation of HUVEC; experiment: VEGF-induced HUVEC proliferation (acid phosphatase assay); assay type: cell-based, human; conditions: VEGF 20 ng/ml; 0.004-10 μg/ml compound; 48 hours; FIG. 1
# From the text: (§1) To determine the inhibitory effect of the compound represented by the chemical formula 1 on angiogenesis, endothelial cells were used as a model on the basis that they are migrated and differentiated into capillary tubes under a specific culture condition, that is, in the presence of angiogenic factors such as VEGF, bFGF, etc. Stimulation by angiogenic factors triggers complex, intracellular reactions of endothelial cells and causes them to undergo cell proliferation and differentiation, resulting in the induction of angiogenesis. […] In gelatin-coated 96-well plates, HUVEC cultured in an M199 medium (20% FBS, 3 ng/ml bFGF, 100 μg/ml heparin) was plated at a density of 10^4 cells/well and cultured for 24 hours under the condition of serum starvation. Thereafter, VEGF and bFGF were independently added at a concentration of 20 ng/ml per well and ACRL-B4 was also added at concentrations of 0.004, 0.02, 0.08, 0.4, 2 and 10 μg/ml while control wells were treated with angiogenic factors only. After 48 hours incubation, the inhibition of HUVEC proliferation by the ACRL-B4 was quantitatively analyzed by an acid phosphatase assay.
# [2] = system: bFGF-induced proliferation of HUVEC; experiment: bFGF-induced HUVEC proliferation (acid phosphatase assay); assay type: cell-based, human; conditions: bFGF 20 ng/ml; 0.004-10 μg/ml compound; 48 hours; FIG. 1
# From the text: as §1
# [3] = system: angiogenesis in chorioallantoic membrane; experiment: Chorioallantoic membrane (CAM) assay using fertilized eggs; assay type: in vivo; conditions: for Inhibition ratio (%): percentage of positive eggs to total tested eggs
# Procedure: <4-2> Inhibitory Effect on in vivo Angiogenesis Chorioallantoic membrane assay using fertilized eggs was used to examine whether the novel compound ACRL-B4 of the present invention is effective to inhibit angiogenesis in vivo.
# After being grown at 37° C. for three days at a humidity of 90% in an incubator, fertilized eggs were deprived of 2 ml of albumin through a 18-gauge subcutaneous injection needle. On the fourth day, a circular window was cut into each of the eggs and the outer layers of their chorioallantoic membranes were removed. Separately, pieces of thermanox coverslip were coated with the ACRL-B4 compound dissolved in ethanol at the concentration of 1 and 5 μg/coverslip and the ethanol was evaporated. On day 4.5, the thermanox coverslip were placed on the embryonic chorioallantoic membranes of the embryos. After 2 days incubation at 37° C., 1-2 ml of 10% fat emulsion was injected into chorioallantois and observed blood vessel formation during an embryogenesis or development procedure under a microscope. As a positive control, 1 μg/egg of retinoic acid was used and a negative control was non-treated coverslip.
# [4] = system: Lewis lung carcinoma 3LL cells; experiment: In vivo tumor growth, 3LL Lewis lung carcinoma in C57BL/6 mice; set-up: species or system mouse; conditions: for inhibition of tumor growth: 3LL in C57BL/6 mice
# Procedure: Into the backs of C57BL/6 mice 4-5 weeks old, 10^6 3LL cancer cells (Korean Collection for Type Culture at Korea Research Institute of Bioscience and Biotechnology) were subcutaneously transplanted. When the tumors were grown to sizes of 100-250 mm^3, the mice were randomly mixed and divided into 4 groups, each of 6 members, to which drugs were administered. For Group 1, only a solvent was used, while the novel compound ACRL-B4 represented by the chemical formula 1 was intraperitoneally injected every other day at doses of 30 mg/kg, 15 mg/kg and 5 mg/kg to Groups 2 to 4, respectively, under the monitoring of tumor sizes and body weights. The test compound was dissolved in a solvent mixture of 85% physiological saline, 5% DMSO (dimethylsulfoxide) and 10% cremophore.
# Tumor sizes were calculated according to the following mathematical formula 1, and since the transplantation of cancer cells, changes in tumor size had been measured and the results are depicted in FIG. 2. [formula]
# B16-BL6 melanoma cells = experiment: In vivo tumor growth, B16-BL6 melanoma in C57BL/6 mice; set-up: species or system mouse; conditions: for inhibition of tumor growth: B16-BL6 in C57BL/6 mice
# Procedure: Onto the back of C57BL/6 mice 4-5 weeks old, 10^6 B16-BL6 melanoma cells were subcutaneously transplanted. When the tumors were grown to sizes of 100-250 mm^3, the mice were randomly mixed and divided into 4 groups, each of 6 members, to which drugs were then administered. For Group 1, only a solvent was used, while the novel compound ACRL-B4 represented by the chemical formula 1 was intraperitoneally injected every other day at doses of 30 mg/kg, 15 mg/kg and 5 mg/kg to Groups 2 to 4, respectively, with monitoring of tumor sizes and body weights. The test compound was dissolved in a solvent mixture of 85% physiological saline, 5% DMSO (dimethylsulfoxide) and 10% cremophore.
# For the calculation of cancer sizes, the mathematical formula 1 was used, and since the transplantation of cancer cells, changes in tumor size had been measured and the results are depicted in FIG. 3.
# [5] = Acute toxicity test on rat upon oral administration; conditions: in vivo, 500 mg/kg
# Procedure: Using specific pathogen-free (SPF) SD rats, which were six weeks old, the 7,8-dihydro-xanthenone-8-carboxylic acid derivative of the present invention were tested for acute toxicity.
# Suspensions of the compound of the present invention in 0.5% methyl cellulose were orally administered once at a dose of 500 mg/kg/15 ml to the rats, which were grouped in threes. […] An autopsy was made of the rats with the naked eye to observe whether their abdominal and thoracic organs were damaged.
# [6] = system: smooth muscle myosin light chain kinase; conditions: Nakanishi et al., J. Antibiotics 1993; cited from earlier work
# protein kinase C = conditions: Nakanishi et al., J. Antibiotics 1993; cited from earlier work
structure (smiles),measurement,setting,value
"COC(=O)C1c2c(oc3cc(CO)cc(O)c3c2=O)C=CC1O (stereo not shown) [ACRL-B4, 7,8-dihydro-1,7-dihydroxy-3-hydroxymethyl-xanthenone-8-carboxylic acid methyl ester]",inhibition of VEGF-induced HUVEC proliferation,[1],"specifically inhibit the VEGF-induced proliferation of HUVEC; also recorded: potent inhibitory activity against the proliferation of HUVEC; also recorded: inhibit the HUVEC proliferation induced by angiogenic factors, especially VEGF"
same,inhibition of bFGF-induced HUVEC proliferation,[2],inhibit the HUVEC proliferation induced by angiogenic factors
same,No. of egg showing anti-angiogenesis,[3]; 1 μg/egg,10
same,Inhibition ratio (%),[3]; 1 μg/egg,71% and 71.4%
same,No. of egg showing anti-angiogenesis,[3]; 5 μg/egg,9
same,Inhibition ratio (%),[3]; 5 μg/egg,90%
same,inhibition of tumor growth,[4]; 5 mg/kg i.p. every other day,40%
same,inhibition of tumor growth,[4]; 15 mg/kg i.p. every other day,60%
same,inhibition of tumor growth,[4]; 30 mg/kg i.p. every other day,80%
same,side effects / body weight,"[4]; 5-30 mg/kg i.p. every other day, 3LL-bearing C57BL/6 mice",did not exhibit toxic effects such as weight loss; also recorded: without causing side effects such as loss of body weight
same,inhibition of tumor growth,B16-BL6 melanoma cells; 5 mg/kg i.p. every other day,40%
same,inhibition of tumor growth,B16-BL6 melanoma cells; 15 mg/kg i.p. every other day,50%
same,inhibition of tumor growth,B16-BL6 melanoma cells; 30 mg/kg i.p. every other day,65%
same,side effects / body weight,"B16-BL6 melanoma cells; 5-30 mg/kg i.p. every other day, B16-BL6-bearing C57BL/6 mice",did not exhibit toxic effects such as weight loss; also recorded: without causing side effects such as loss of body weight
same,LD50,"[5]; oral, single dose, SD rats, read-out: lethal dose (LD50)",≥ 500 mg/kg
same,death and clinical symptoms,[5]; po,Neither sudden death nor noticeable clinical symptoms were detected
same,"toxicity signs (weight change, serological tests, serobiochemical tests, corpse examination)",[5]; po,no toxicity signs were observed
COC(=O)C12OC1C=Cc1oc3cc(CO)cc(O)c3c(=O)c12 (stereo not shown) [MS-347a],inhibition of smooth muscle myosin light chain kinase,[6],inhibitory activity against smooth muscle myosin light chain kinase
same,inhibition of protein kinase C,protein kinase C,inhibitory activity
"CC1=C(/C=C/C(C)=C/C=C/C(C)=C/C(=O)O)C(C)(C)CCC1 [Positive control, retinoic acid, reference compound]",No. of egg showing anti-angiogenesis,[3]; 1 μg/egg,6
same,Inhibition ratio (%),[3]; 1 μg/egg,75%
COC(=O)c1c(O)ccc2oc3cc(CO)cc(O)c3c(=O)c12 [sydowinin B],inhibition of smooth muscle myosin light chain kinase,[6],inhibitor of smooth muscle myosin light chain kinase

# Source: patent US6770671B2, “7,8-dihydro-xanthenone-8-carboxylic acid derivative and novel microbe producing the same” (Korea Research Institute of Bioscience and Biotechnology, priority 2000, dated 2004)
